The source of these data is patent US20250340552A1, “COMPOUNDS, COMPOSITIONS AND METHODS OF TREATING DISORDERS” (HOTSPOT THERAPEUTICS, INC., priority 2022, published 2025).

What is called DC50 is the concentration at which degradation of the target reaches its halfway point. Low readings indicate a more potent degrader, high ones a less potent degrader. The term Dmax denotes the greatest extent of degradation seen.

Where two headings read alike, the source gives them in different places.

The target in this test is T1, Cbl-B (Homo sapiens, UniProt Q13191).
T1 construct: MSD-Based Assay for Degradation of Cbl-B in THP-1 Cells; endogenous in cells; host or cells: THP-1 (title) / Jurkat (protocol text)
Nature of the test: MSD-based assay for degradation of Cbl-B in THP-1 cells. Format: cell-based. Put shortly:
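Reported Dmax bins are A >70%, B 50–70%, C 30–50% and D <30%, from an electrochemiluminescence (MSD) sandwich assay of Cbl-B in cell lysates. THP-1 cells were exposed to compounds for 24 hours before lysis.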

[1] abbreviates: Cbl-B degradation, Jurkat cells seeded (heading: THP-1 cells), 24 hours incubation, MSD readout.
Setting [2] is: Cbl-B degradation, Jurkat cells seeded (heading: THP-1 cells), 24 hours incubation, MSD readout, read-out: Dmax.

T1 sequence (Q13191 whole entry): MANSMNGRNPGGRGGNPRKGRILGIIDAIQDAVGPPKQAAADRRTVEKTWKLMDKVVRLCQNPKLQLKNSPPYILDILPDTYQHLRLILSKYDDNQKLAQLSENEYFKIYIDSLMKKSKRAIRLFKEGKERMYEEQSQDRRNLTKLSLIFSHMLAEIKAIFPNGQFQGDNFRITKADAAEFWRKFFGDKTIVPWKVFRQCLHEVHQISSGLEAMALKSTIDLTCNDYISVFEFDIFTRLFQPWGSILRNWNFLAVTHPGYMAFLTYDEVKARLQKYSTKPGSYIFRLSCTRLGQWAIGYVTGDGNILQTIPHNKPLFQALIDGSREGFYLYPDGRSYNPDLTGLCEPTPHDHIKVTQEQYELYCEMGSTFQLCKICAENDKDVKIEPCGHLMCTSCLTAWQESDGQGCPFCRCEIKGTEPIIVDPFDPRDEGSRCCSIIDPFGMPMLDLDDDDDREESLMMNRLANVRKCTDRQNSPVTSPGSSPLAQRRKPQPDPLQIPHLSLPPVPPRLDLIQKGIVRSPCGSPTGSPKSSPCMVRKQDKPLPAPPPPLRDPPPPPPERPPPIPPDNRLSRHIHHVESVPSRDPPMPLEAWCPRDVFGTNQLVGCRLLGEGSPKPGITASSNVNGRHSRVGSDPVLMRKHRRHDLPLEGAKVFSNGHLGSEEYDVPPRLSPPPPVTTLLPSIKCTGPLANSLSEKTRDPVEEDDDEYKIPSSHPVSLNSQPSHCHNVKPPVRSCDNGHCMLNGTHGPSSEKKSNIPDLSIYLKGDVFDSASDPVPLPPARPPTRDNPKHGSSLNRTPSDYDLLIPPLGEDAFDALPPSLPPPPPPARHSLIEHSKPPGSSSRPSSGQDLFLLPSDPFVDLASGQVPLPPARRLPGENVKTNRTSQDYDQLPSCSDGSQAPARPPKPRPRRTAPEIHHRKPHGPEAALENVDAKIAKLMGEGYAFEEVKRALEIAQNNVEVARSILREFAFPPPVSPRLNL

`Cn1cnnc1CC1(c2cccc(-n3cc4c(C(F)(F)F)cc(CN5CCC[C@@H](OCCN6CCC(CN7CCN(c8ccc9c(c8)CN([C@@H]8CCC(=O)NC8=O)C9=O)CC7)CC6)C5)cn4c3=O)c2)COC1` (single isomer, unassigned) [Compound 49]: under setting [1], the DC50 was 300 to 1000 nM. Further, the Dmax under setting [2] lay within 50 to 70%.
On the same counts, the results for `Cn1cnnc1CC1(c2cccc(-n3cc4c(C(F)(F)F)cc(CN5CCC(OCCNc6cccc7c6C(=O)N(C6CCC(=O)NC6=O)C7=O)CC5)cn4c3=O)c2)COC1` (stereo not drawn) [Compound 36] are 1000 to 10000 nM and under 30%.
In the same order, the values of `Cn1cnnc1[C@@H](c1cccc(-n2cc3c(C(F)(F)F)cc(CN4CCC[C@H](OCCN5CCC(CN6CCN(c7ccc8c(c7)CN([C@@H]7CCC(=O)NC7=O)C8=O)CC6)CC5)C4)cn3c2=O)c1)C1CCC1` [Compound 55] are 1000 to 10000 nM and 30 to 50%.
On the same counts, the results for `CN(CCN1CCC(CN2CCN(c3cc4c(cc3F)C(=O)N(C3CCC(=O)NC3=O)C4=O)CC2)CC1)Cc1cc(C(F)(F)F)c2cn(-c3cccc(C4(Cc5nncn5C)COC4)c3)c(=O)n2c1` (stereo not drawn) [Compound 15] are over 10000 nM and under 30%.
In the case of `Cn1cnnc1CC1(c2cccc(-n3cc4c(C(F)(F)F)cc(CN5CCN(C(=O)CN6CCC(CN7CCN(c8ccc9c(c8)CN([C@H]8CCC(=O)NC8=O)C9=O)CC7)CC6)CC5)cn4c3=O)c2)COC1` (single isomer, unassigned) [Compound 132], under setting [1], the DC50 is under 30 nM. In addition, the Dmax under setting [2] was 50 to 70%.
On the same counts, the results for `Cn1cnnc1[C@@H](c1cccc(-n2cc3c(C(F)(F)F)cc(CN4CCN(CCc5ccc(N6CCN(c7ccc8c(c7)CN([C@@H]7CCC(=O)NC7=O)C8=O)CC6)cc5)CC4)cn3c2=O)c1)C1CCC1` (single isomer, unassigned) [Compound 125] are 30 to 300 nM and 50 to 70%.
In the same order, the values of `Cn1cnnc1[C@@H](c1cccc(-n2cc3c(C(F)(F)F)cc(CN4CCC(OCCOCc5ccc(CN6CCN(c7ccc8c(c7)CN([C@H]7CCC(=O)NC7=O)C8=O)CC6)cc5)CC4)cn3c2=O)c1)C1CCC1` (single isomer, unassigned) [Compound 88] are under 30 nM and over 70%.
In the same order, the values of `CN(CCOCc1cc(C(F)(F)F)c2cn(-c3cccc([C@H](c4nncn4C)C4CCC4)c3)c(=O)n2c1)C(=O)c1ccc(N2CCN(c3ccc4c(c3)CN([C@H]3CCC(=O)NC3=O)C4=O)CC2)cc1` (single isomer, unassigned) [Compound 148] are 30 to 300 nM and 30 to 50%.
Compound `Cn1cnnc1CC1(c2cccc(-n3cc4c(C(F)(F)F)cc(CN5CCC(OCCN6CCN(CC7CCN(c8ccc9c(c8)CN([C@H]8CCC(=O)NC8=O)C9=O)CC7)CC6)CC5)cn4c3=O)c2)COC1` (single isomer, unassigned) [Compound 78] gave a DC50 under setting [1] of under 30 nM. For the same compound, under setting [2], the Dmax was 50 to 70%.
In the same order, the values of `Cn1cnnc1CC1(c2cccc(-n3cc4c(C(F)(F)F)cc(CN5CCC[C@@H](OC6CCN(C(=O)c7ccc(N8CCN(c9ccc%10c(c9)CN([C@H]9CCC(=O)NC9=O)C%10=O)CC8)cc7)CC6)C5)cn4c3=O)c2)COC1` (single isomer, unassigned) [Compound 264] are under 30 nM and over 70%.
For the compound `CO[C@H]1C[C@](c2cccc(-n3cc4c(C(F)(F)F)cc(CN5CCC(OCCN6CCC(CN7CCN(c8ccc9c(c8)CN([C@H]8CCC(=O)NC8=O)C9=O)CC7)CC6)CC5)cn4c3=O)c2)(c2nncn2C)C1` [Compound 70], under setting [1], the DC50 is 30 to 300 nM. Also, the Dmax under setting [2] fell in the range of 50 to 70%.
For `Cn1cnnc1CC1(c2cccc(-n3cc4c(C(F)(F)F)cc(CN5CCC(C6CCN(C(=O)c7ccc(N8CCN(c9ccc%10c(c9)CN([C@H]9CCC(=O)NC9=O)C%10=O)CC8)cc7)CC6)CC5)cn4c3=O)c2)COC1` [Compound 262], the DC50 under setting [1] was under 30 nM. Further, the Dmax (THP-1) was over 70%.
For the compound `CN(CC1CCN(Cc2cc(C(F)(F)F)c3cn(-c4cccc(C5(Cc6nncn6C)COC5)c4)c(=O)n3c2)CC1)C(=O)c1ccc(N2CCN(c3ccc4c(c3)CN([C@H]3CCC(=O)NC3=O)C4=O)CC2)cc1` [Compound 166], under setting [1], the DC50 is under 30 nM. Under setting [2], the Dmax was over 70%.
As to `CN(CCO[C@H]1CCCN(Cc2cc(C(F)(F)F)c3cn(-c4cccc([C@H](c5nncn5C)C5CCC5)c4)c(=O)n3c2)C1)C(=O)c1ccc(N2CCN(c3ccc4c(c3)CN([C@H]3CCC(=O)NC3=O)C4=O)CC2)cc1` [Compound 106], the half-maximal degradation concentration (DC50) under setting [1] lay within 300 to 1000 nM.
As to `CO[C@H]1C[C@@](c2cccc(-n3cc4c(C(F)(F)F)cc(CN5CCC(OCCN6CCC(CN7CCN(c8ccc9c(c8)CN([C@H]8CCC(=O)NC8=O)C9=O)CC7)CC6)CC5)cn4c3=O)c2)(c2nncn2C)C1` [Compound 74], under setting [1], the DC50 lay in the range of 1000 to 10000 nM. Moreover, under setting [2], the Dmax lay in the range of 50 to 70%.
Turning to `Cn1cnnc1CC1(c2cccc(-n3cc4c(C(F)(F)F)cc(CN5CCC(OCCN6CCC(CN7CCN(c8cc9c(cc8F)C(=O)N(C8CCC(=O)NC8=O)C9=O)CC7)CC6)CC5)cn4c3=O)c2)COC1` (stereo not drawn) [Compound 7], under setting [1], the DC50 was over 10000 nM. Further, the Dmax (THP-1) was under 30%.
Regarding `Cn1cnnc1[C@@H](c1cccc(N2Cc3c(cc(CN4CCC(OCCN5CCC(CN6CCN(c7ccc8c(c7)CN([C@H]7CCC(=O)NC7=O)C8=O)CC6)CC5)CC4)cc3C(F)(F)F)C2=O)c1)C1CCC1` [Compound 66], under setting [1], the DC50 lay in the range of 30 to 300 nM. Besides, the Dmax (THP-1) is 50 to 70%.
Under setting [1], `Cn1cnnc1[C@@H](c1cccc(-n2cc3c(C(F)(F)F)cc(CN4CCC(OCc5ccc(CN6CCN(c7ccc8c(c7)CN([C@H]7CCC(=O)NC7=O)C8=O)CC6)cc5)CC4)cn3c2=O)c1)C1CCC1` (single isomer, unassigned) [Compound 92] gave a DC50 of under 30 nM. For the same compound, under setting [2], the Dmax is over 70%.
On the same counts, the results for `Cn1cnnc1[C@@H](c1cccc(-n2cc3c(C(F)(F)F)cc(CN4CCC(OCCN5CCC(CN6CCN(c7ccc8c(c7)CN([C@H]7CCC(=O)NC7=O)C8=O)CC6)CC5)CC4)cn3c2=O)c1)C1COC1` [Compound 58] are 30 to 300 nM and over 70%.
In turn, `Cn1cnnc1[C@@H](c1cccc(-n2cc3c(C(F)(F)F)cc(CN4CCC(C5CCN(C(=O)c6ccc(N7CCN(c8ccc9c(c8)CN([C@H]8CCC(=O)NC8=O)C9=O)CC7)cc6)CC5)CC4)cn3c2=O)c1)C1CCC1` (single isomer, unassigned) [Compound 162] came in with a DC50 under setting [1] of under 30 nM. Further, the Dmax under setting [2] is over 70%.
As for `Cn1cnnc1CC1(c2cccc(N3Cc4c(cc(CN5CCC(OCCOCc6ccc(COCCNc7cccc8c7C(=O)N(C7CCC(=O)NC7=O)C8=O)cc6)CC5)cc4C(F)(F)F)C3=O)c2)COC1` (stereo not drawn) [Compound 21], the DC50 under setting [1] is 1000 to 10000 nM. Moreover, the Dmax under setting [2] lay within 30 to 50%.
In the same order, the values of `CO[C@H]1C[C@](c2cccc(-n3cc4c(C(F)(F)F)cc(CN5CCC(COCc6ccc(CN7CCN(c8ccc9c(c8)CN([C@@H]8CCC(=O)NC8=O)C9=O)CC7)cc6)CC5)cn4c3=O)c2)(c2nncn2C)C1` [Compound 223] are 30 to 300 nM and 30 to 50%.
On the same counts, the results for `Cn1cnnc1[C@@H](c1cccc(-n2cc3c(C(F)(F)F)cc(CN4CCC(CC(=O)N5CCC(CN6CCN(c7ccc8c(c7)CN([C@@H]7CCC(=O)NC7=O)C8=O)CC6)CC5)CC4)cn3c2=O)c1)C1CCC1` (single isomer, unassigned) [Compound 111] are 30 to 300 nM and 50 to 70%.
For `Cn1cnnc1CC1(c2cccc(-n3cc4c(C(F)(F)F)cc(CN5CCC(OCCN6CCN(CC7CCN(c8ccc9c(c8)CN([C@@H]8CCC(=O)NC8=O)C9=O)CC7)CC6)CC5)cn4c3=O)c2)COC1` (single isomer, unassigned) [Compound 77], the DC50 under setting [1] is 300 to 1000 nM. The compound further yielded a Dmax (THP-1) of 30 to 50%.
`Cn1cnnc1[C@@H](c1cccc(-n2cc3c(C(F)(F)F)cc(CN4CCC(OCCOCc5ccc(CN6CCN(c7ccc8c(c7)CN([C@@H]7CCC(=O)NC7=O)C8=O)CC6)cc5)CC4)cn3c2=O)c1)C1CCC1` (single isomer, unassigned) [Compound 87] yielded a DC50 under setting [1] of 300 to 1000 nM. Besides, the Dmax under setting [2] was 30 to 50%.
With `Cn1cnnc1[C@@H](c1cccc(-n2cc3c(C(F)(F)F)cc(CN4CCC(N5CCN(c6ccc7c(c6)CN([C@@H]6CCC(=O)NC6=O)C7=O)CC5)CC4)cn3c2=O)c1)C1CCC1` (single isomer, unassigned) [Compound 40], the DC50 under setting [1] fell in the range of 1000 to 10000 nM. For the same compound, the Dmax (THP-1) is under 30%.
As for `Cn1cnnc1CC1(c2cccc(-n3cc4c(C(F)(F)F)cc(CN5CCN(CCc6ccc(C7CCN(c8ccc9c(c8)CN([C@H]8CCC(=O)NC8=O)C9=O)CC7)cc6)CC5)cn4c3=O)c2)COC1` [Compound 230], the DC50 under setting [1] is under 30 nM.
As for `Cn1cnnc1CC1(c2cccc(-n3cc4c(C(F)(F)F)cc(CN5CCN(CC(=O)N6CCC(CN7CCN(c8ccc9c(c8)CN([C@H]8CCC(=O)NC8=O)C9=O)CC7)CC6)CC5)cn4c3=O)c2)COC1` (single isomer, unassigned) [Compound 134], the DC50 under setting [1] was under 30 nM. Further, the Dmax under setting [2] was over 70%.
On the same counts, the results for `Cn1cnnc1[C@@H](c1cccc(-n2cc3c(C(F)(F)F)cc(CN4CCN(CCc5ccc(C6CCN(c7ccc8c(c7)CN([C@H]7CCC(=O)NC7=O)C8=O)CC6)cc5)CC4)cn3c2=O)c1)C1CCC1` (single isomer, unassigned) [Compound 228] are under 30 nM and over 70%.
For the compound `Cn1cnnc1CC1(c2cccc(-n3cc4c(C(F)(F)F)cc(CN5CCC(OCCN6CCC(CN7CCN(c8ccc9c(c8)CN([C@@H]8CCC(=O)NC8=O)C9=O)CC7)CC6)CC5)cn4c3=O)c2)COC1` (single isomer, unassigned) [Compound 47], the DC50 under setting [1] lay within 300 to 1000 nM. The Dmax under setting [2] lay in the range of 50 to 70%.
In turn, `Cn1cnnc1[C@@H](c1cccc(-n2cc3c(C(F)(F)F)cc(CN4CC(OCCN5CCC(CN6CCN(c7ccc8c(c7)CN(C7CCC(=O)NC7=O)C8=O)CC6)CC5)C4)cn3c2=O)c1)C1CCC1` (stereo partly drawn) [Compound 114] showed a DC50 under setting [1] of over 10000 nM. For the same compound, under setting [2], the Dmax was under 30%.
